Values after ≈ are worked out from the molar mass of the structure shown. Active and inactive are the calls of the source. No cut-off for these calls is given here.
What was measured:
Plasmodium falciparum [1] = assay: Antiplasmodial activity against multidrug resistant Plasmodium falciparum K1 incubated for 72 hrs by microplate reader assay; type: functional, organism-based; conditions: K1, 72 h
[2] = Cytotoxicity against CHO cells measured after 48 hrs by MTT assay; conditions: Chinese hamster
physchem = conditions: buffer, pH 7.4
Plasmodium falciparum [3] = assay: microbe, parasite or virus in culture; conditions: NF54, 72 h
[4] = Selectivity index, ratio of IC50 for Plasmodium falciparum NF54 to IC50 for CHO cells; conditions: hamster
HepG2 = assay: Cytotoxicity against human HepG2 cells after 48 hrs by CellTiter Glo assay; type: toxicity, cell-based; conditions: hepg2, 48 h
Plasmodium falciparum [5] = assay: Antiplasmodial activity against early stage (I to III) Plasmodium falciparum incubated for 48 hrs by bioluminescence assay; type: functional, organism-based
[6] = target: Voltage-gated inwardly rectifying potassium channel KCNH2 (Homo sapiens, UniProt Q12809); assay: Inhibition of human ERG expressed in CHO-K1 cells by Q-patch clamp assay
Voltage-gated inwardly rectifying potassium channel KCNH2, sequence (Q12809 whole entry): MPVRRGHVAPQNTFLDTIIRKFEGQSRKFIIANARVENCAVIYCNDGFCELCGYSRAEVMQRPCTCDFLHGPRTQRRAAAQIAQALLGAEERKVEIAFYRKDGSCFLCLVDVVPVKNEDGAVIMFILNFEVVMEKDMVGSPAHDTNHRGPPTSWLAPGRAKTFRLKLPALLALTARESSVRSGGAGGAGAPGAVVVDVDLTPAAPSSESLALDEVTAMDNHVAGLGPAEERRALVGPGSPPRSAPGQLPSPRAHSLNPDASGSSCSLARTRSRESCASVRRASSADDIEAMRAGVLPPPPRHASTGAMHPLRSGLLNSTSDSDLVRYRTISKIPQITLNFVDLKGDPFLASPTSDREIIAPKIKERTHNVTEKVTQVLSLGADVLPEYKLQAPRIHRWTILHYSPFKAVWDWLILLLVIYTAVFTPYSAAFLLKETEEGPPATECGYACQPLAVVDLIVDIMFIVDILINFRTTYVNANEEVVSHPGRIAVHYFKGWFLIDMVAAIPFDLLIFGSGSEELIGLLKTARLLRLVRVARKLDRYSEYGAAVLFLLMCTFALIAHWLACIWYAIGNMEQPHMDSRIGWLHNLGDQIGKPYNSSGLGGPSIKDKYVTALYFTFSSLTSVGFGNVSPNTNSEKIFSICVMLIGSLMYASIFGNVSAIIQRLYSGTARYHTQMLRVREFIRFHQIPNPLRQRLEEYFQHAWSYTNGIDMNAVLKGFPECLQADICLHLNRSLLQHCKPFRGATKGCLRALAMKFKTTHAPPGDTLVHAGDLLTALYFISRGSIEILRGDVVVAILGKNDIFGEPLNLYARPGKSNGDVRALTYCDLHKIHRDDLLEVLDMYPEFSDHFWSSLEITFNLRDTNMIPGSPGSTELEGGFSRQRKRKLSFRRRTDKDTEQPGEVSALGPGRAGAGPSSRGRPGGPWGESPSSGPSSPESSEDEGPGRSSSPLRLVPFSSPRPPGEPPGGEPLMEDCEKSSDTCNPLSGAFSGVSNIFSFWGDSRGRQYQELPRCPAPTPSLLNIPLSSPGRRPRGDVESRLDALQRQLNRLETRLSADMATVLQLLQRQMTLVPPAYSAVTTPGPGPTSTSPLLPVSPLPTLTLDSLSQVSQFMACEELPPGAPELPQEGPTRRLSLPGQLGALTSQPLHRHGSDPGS

Hemozoin = assay: Inhibition of Beta-hematin in Plasmodium falciparum NF54 assessed as hemozoin formation after 36 hrs by flow cytometry analysis
Plasmodium falciparum [7] = assay: Antiplasmodial activity against chloroquine sensitive Plasmodium falciparum NF54 infected in human erythrocytes incubated for 48 hrs followed by addition of [3H]-hypoxanthine and measured after 24 hrs by beta-plate liquid scintillation counting method; type: functional, organism-based
Plasmodium falciparum [8] = assay: Antiplasmodial activity against multidrug resistant Plasmodium falciparum K1 infected in human erythrocytes incubated for 48 hrs followed by addition of [3H]-hypoxanthine and measured after 24 hrs by beta-plate liquid scintillation counting method; type: functional, organism-based

Structure (SMILES) | solubility kinetic at 2 h (physchem) [µM] | IC50 (Plasmodium falciparum [3]) [nM] | other results
C[C@H]1COC(c2ccc(CCN3CCC(Nc4nc5ccccc5n4Cc4ccc(C#N)cc4)CC3)cc2)=N1 | 20 (≈ 10.4 µg/mL) | 74 | IC50 (Plasmodium falciparum [1]): 263 nM; IC50 at 48 h ([2]; CHO cells): 38900 nM; selectivity ratio [4]: 525
Cn1c(NC2CCN(CCc3ccc(-c4nc(C(C)(C)C)no4)cc3)CC2)nc2ccccc21 | – | 64 | IC50 (Plasmodium falciparum [1]): 300 nM; IC50 at 48 h ([2]; cho): 4690 nM; Activity (HepG2): Non-Toxic; IC50 (Plasmodium falciparum [5]): 1180 nM
COC(=O)c1ccc2c(c1)nc(NC1CCN(CCc3ccc(-c4nc(C)no4)cc3)CC1)n2C | 120 (≈ 56.9 µg/mL) | 496 | IC50 [6]: 490 nM
COc1ccc(CCN2CCC(Nc3nc4ccccc4n3Cc3ccc(F)cc3)CC2)cc1 [ASTEMIZOLE] | 40 (≈ 18.3 µg/mL) | – | Activity (HepG2): Non-Toxic
Cc1noc(-c2ccc(CCN3CCC(Nc4nc5cc(F)ccc5n4C)CC3)cc2)n1 | 80 (≈ 34.8 µg/mL) | 834 | IC50 [6]: 28700 nM
N#Cc1ccc(Cn2c(NC3CCN(CCc4ccc(-c5nc(C(F)(F)F)no5)cc4)CC3)nc3ccccc32)cc1 | 10 (≈ 5.72 µg/mL) | 22 | inhibition (Hemozoin): Active; IC50 (Plasmodium falciparum [1]): 27 nM; IC50 at 48 h ([2]; CHO cells): 750 nM; IC50 [6]: 470 nM; selectivity ratio [4]: 34
Cn1c(NC2CCN(CCc3ccc(C(=O)N4CCC(C)(O)C4)cc3)CC2)nc2ccccc21 (stereo not drawn) | 80 (≈ 36.9 µg/mL) | > 6000 | –
CCN(CC)CCCC(C)Nc1ccnc2cc(Cl)ccc12 (stereo not drawn) [CHLOROQUINE] | – | – | IC50 (Hemozoin): 22000 nM
COc1ccc2c(c1)nc(NC1CCN(CCc3ccc(-c4nc(C)no4)cc3)CC1)n2C | 80 (≈ 35.7 µg/mL) | 309 | –
N#Cc1ccc(Cn2c(NC3CCN(CCc4ccc(-c5ncon5)cc4)CC3)nc3ccccc32)cc1 | 40 (≈ 20.1 µg/mL) | 89 | IC50 (Plasmodium falciparum [1]): 399 nM; IC50 at 48 h ([2]; CHO cells): 16600 nM; selectivity ratio [4]: 187
Cc1noc(-c2ccc(CCN3CCC(Nc4nc5ccccc5n4Cc4ccc(C(F)(F)F)cc4)CC3)cc2)n1 | 10 (≈ 5.61 µg/mL) | 30 | IC50 (Plasmodium falciparum [1]): 104 nM; IC50 at 48 h ([2]; CHO cells): 3330 nM; selectivity ratio [4]: 111
Cc1noc(-c2ccc(CCN3CCC(Nc4nc5ccccc5n4Cc4ccc(C(F)(F)F)nc4)CC3)cc2)n1 | 40 (≈ 22.5 µg/mL) | 44 | inhibition (Hemozoin): Active; IC50 (Plasmodium falciparum [1]): 173 nM; IC50 at 48 h ([2]; CHO cells): 5630 nM; IC50 [6]: 250 nM; selectivity ratio [4]: 128
C[C@@H]1CN=C(c2ccc(CCN3CCC(Nc4nc5ccccc5n4Cc4ccc(C#N)cc4)CC3)cc2)O1 | 60 (≈ 31.1 µg/mL) | 104 | IC50 (Plasmodium falciparum [1]): 352 nM
Cc1noc(-c2ccc(CCN3CCC(Nc4nc5cc(Cl)c(Cl)cc5n4C)CC3)cc2)n1 | 80 (≈ 38.8 µg/mL) | 514 | –
Cc1noc(-c2ccc(CCN3CCC(Nc4nc5cc(Br)ccc5n4C)CC3)cc2)n1 | 80 (≈ 39.6 µg/mL) | 720 | –
Cc1noc(-c2ccc(CCN3CCC(Nc4nc5ccccc5n4CC4CCC(F)(F)CC4)CC3)cc2)n1 | 20 (≈ 10.7 µg/mL) | 460 | –
Cc1noc(-c2ccc(CCN3CCC(Nc4nc5ccccc5n4CC4CCCCC4)CC3)cc2)n1 | 80 (≈ 39.9 µg/mL) | 93 | IC50 (Plasmodium falciparum [1]): 156 nM; IC50 at 48 h ([2]; CHO cells): 44400 nM; IC50 [6]: 890 nM; selectivity ratio [4]: 477
Cn1c(NC2CCN(CCc3ccc(-c4nc(CO)no4)cc3)CC2)nc2ccccc21 | 100 (≈ 43.3 µg/mL) | 567 | –
Cn1c(NC2CCN(CCc3ccc(C(=O)N4CCC(O)C4)cc3)CC2)nc2ccccc21 (stereo not drawn) | 80 (≈ 35.8 µg/mL) | 3990 | –
Cn1c(NC2CCN(CCc3ccc(-c4nc(C(=O)O)no4)cc3)CC2)nc2ccccc21 | 120 (≈ 53.6 µg/mL) | > 6000 | IC50 [6]: > 30000 nM
Cc1noc(-c2ccc(CCN3CCC(Nc4nc5cc(C)c(C)cc5n4C)CC3)cc2)n1 | 60 (≈ 26.7 µg/mL) | 163 | –
Cn1c(NC2CCN(CCc3ccc(C(=O)NCCO)cc3)CC2)nc2ccccc21 | 120 (≈ 50.6 µg/mL) | 4170 | –
Cn1c(NC2CCN(CCc3ccc(C(=O)N4CCN5CCCC5C4)cc3)CC2)nc2ccccc21 (stereo not drawn) | 60 (≈ 29.2 µg/mL) | 1280 | –
Cc1noc(-c2ccc(CCN3CCC(Nc4nc5ccccc5n4Cc4ccc(C#N)cc4)CC3)cc2)n1 | – | 97 | IC50 (Plasmodium falciparum [1]): 178 nM; IC50 at 48 h ([2]; cho): 19700 nM
CCN(CC)Cc1cc(Nc2ccnc3cc(Cl)ccc23)ccc1O [AMODIAQUINE] | – | – | IC50 (Hemozoin): 10000 nM
Cc1noc(-c2ccc(CCN3CCC(Nc4nc5cc(C(F)(F)F)ccc5n4C)CC3)cc2)n1 | 40 (≈ 19.4 µg/mL) | 422 | –

Structure (SMILES) | solubility kinetic at 2 h (physchem) [µM] | IC50 (Plasmodium falciparum [3]) [nM] | other results
Cc1noc(-c2ccc(CCN3CCC(Nc4nc5cc(F)c(F)cc5n4C)CC3)cc2)n1 | 80 (≈ 36.2 µg/mL) | 1160 | –
N#Cc1ccc(Cn2c(NC3CCN(CCc4ccc(-c5noc(C(F)(F)F)n5)cc4)CC3)nc3ccccc32)cc1 | 20 (≈ 11.4 µg/mL) | 21 | inhibition (Hemozoin): Active; IC50 (Plasmodium falciparum [1]): 49 nM; IC50 at 48 h ([2]; CHO cells): 3850 nM; selectivity ratio [4]: 175
Cc1noc(-c2ccc(CCN3CCC(Nc4nc5cc(S(C)(=O)=O)ccc5n4C)CC3)cc2)n1 | 60 (≈ 29.7 µg/mL) | 4650 | –
Cc1noc(-c2ccc(CCN3CCC(Nc4nc5cc(C(=O)O)ccc5n4C)CC3)cc2)n1 | 160 (≈ 73.7 µg/mL) | > 6000 | –
Cc1noc(-c2ccc(CCN3CCC(Nc4nc5ccccc5n4C)CC3)cc2)n1 | 160 (≈ 66.6 µg/mL) | 33 | IC50 (Plasmodium falciparum [1]): 82 nM; IC50 at 48 h ([2]; CHO cells): 9080 nM; IC50 [6]: 350 nM; selectivity ratio [4]: 275
Cc1noc(-c2ccc(CCN3CCC(Nc4nc5ccccc5n4Cc4cccnc4)CC3)cc2)n1 | – | 304 | –
Cn1c(NC2CCN(CCc3ccc(-c4nc(C5CC5)no4)cc3)CC2)nc2ccccc21 | 60 (≈ 26.6 µg/mL) | 484 | –
Cc1nc(-c2ccc(CCN3CCC(Nc4nc5ccccc5n4Cc4ccc(C#N)cc4)CC3)cc2)no1 | 40 (≈ 20.7 µg/mL) | 51 | IC50 (Plasmodium falciparum [1]): 174 nM; IC50 at 48 h ([2]; CHO cells): 5870 nM; selectivity ratio [4]: 115
Cn1c(NC2CCN(CCc3ccc(C(=O)N4CCOCC4)cc3)CC2)nc2ccccc21 | 80 (≈ 35.8 µg/mL) | > 6000 | –
Cc1noc(-c2ccc(CCN3CC[C@H](Nc4nc5ccccc5n4Cc4ccc(C#N)cc4)C3)cc2)n1 | – | 515 | –
Cn1c(NC2CCN(CCc3ccc(C(=O)NC4(CO)CC4)cc3)CC2)nc2ccccc21 | 60 (≈ 26.9 µg/mL) | 1730 | IC50 [6]: > 30000 nM
C=CCNC(=O)c1ccc(CCN2CCC(Nc3nc4ccccc4n3C)CC2)cc1 | 80 (≈ 33.4 µg/mL) | 2610 | –
CC(C)c1noc(-c2ccc(CCN3CCC(Nc4nc5ccccc5n4C)CC3)cc2)n1 | 60 (≈ 26.7 µg/mL) | 492 | –
Cn1c(NC2CCN(CCc3ccc(C(=O)O)cc3)CC2)nc2ccccc21 | 160 (≈ 60.6 µg/mL) | > 6000 | –
Cn1c(NC2CCN(CCc3ccc(C(=O)N4CCNCC4)cc3)CC2)nc2ccccc21 | 120 (≈ 53.6 µg/mL) | 3410 | IC50 [6]: > 30000 nM
COC(=O)c1ccc(CCN2CCC(Nc3nc4ccccc4n3C)CC2)cc1 | 120 (≈ 47.1 µg/mL) | 1450 | –
CN(C)c1ccc2nc3ccc(N(C)C)cc3[s+]c2c1 [METHYLENE BLUE ANHYDROUS] | – | – | IC50 (Plasmodium falciparum [5]): 200 nM
Cc1noc(-c2ccc(CCN3CCC(Nc4nc5cc(C#N)ccc5n4C)CC3)cc2)n1 | 80 (≈ 35.3 µg/mL) | 611 | –
Cn1c(NC2CCN(CCc3ccc(C(=O)NCCN)cc3)CC2)nc2ccccc21 | 100 (≈ 42.1 µg/mL) | > 6000 | –
Cc1noc(-c2ccc(CCN3CC[C@@H](Nc4nc5ccccc5n4Cc4ccc(C#N)cc4)C3)cc2)n1 | – | 448 | –
CN(C)Cc1noc(-c2ccc(CCN3CCC(Nc4nc5ccccc5n4C)CC3)cc2)n1 | 120 (≈ 55.2 µg/mL) | 831 | –
Cc1noc(-c2ccc(CCN3CCC(Nc4nc5ccccc5n4C(C)C)CC3)cc2)n1 | 20 (≈ 8.89 µg/mL) | 702 | –
Cc1nnc(-c2ccc(CCN3CCC(Nc4nc5ccccc5n4Cc4ccc(C#N)cc4)CC3)cc2)o1 | 20 (≈ 10.4 µg/mL) | 519 | –
NCCn1c(NC2CCN(CCc3ccc(-c4nc(C(F)(F)F)no4)cc3)CC2)nc2ccccc21 | > 200 | – | IC50 (Plasmodium falciparum [7]): 90 nM; IC50 (Plasmodium falciparum [8]): 36 nM
Cc1noc(-c2ccc(CCN3CC4(CCN(c5nc6ccccc6n5Cc5ccc(C#N)cc5)C4)C3)cc2)n1 | 40 (≈ 21.2 µg/mL) | 446 | –
CSCc1noc(-c2ccc(CCN3CCC(Nc4nc5ccccc5n4C)CC3)cc2)n1 | 80 (≈ 37 µg/mL) | 383 | –

Reference: ChEMBL document CHEMBL5236628 (J Med Chem, 2022)
